# Assay results from ChEMBL document CHEMBL4402531, “Recent advances in α,β-unsaturated carbonyl compounds as mitochondrial toxins” (Eur J Med Chem, 2019).
# Legend:
# [1] = system: PC-3; assay: Cytotoxicity against human PC3 cells assessed as reduction in cell viability; assay type: functional, cell-based
# [2] = system: HL-60; assay: Cytotoxicity against human HL60 cells assessed as reduction in cell viability; assay type: functional, cell-based
# [3] = system: K562; assay: Induction of apoptosis in human K562 cells; assay type: functional, cell-based
# [4] = system: K562; assay: Cell cycle arrest in human K562 cells assessed as accumulation at G0 phase; assay type: functional, cell-based
# [5] = system: K562; assay: Cell cycle arrest in human K562 cells assessed as accumulation at G1 phase; assay type: functional, cell-based
# [6] = system: HCT-116; assay: Cytotoxicity against human HCT116 cells assessed as reduction in cell viability after 72 hrs by MTT assay; assay type: functional, cell-based; details: HCT-116, 72 h
# [7] = system: CNE-2; assay: Cytotoxicity against human CNE2 cells assessed as reduction in cell viability after 48 hrs; assay type: functional, cell-based; details: CNE-2, 48 h
# [8] = system: CNE; assay: Cytotoxicity against human CNE1 cells assessed as reduction in cell viability after 48 hrs; assay type: functional, cell-based
# [9] = system: SGC-7901; assay: Cytotoxicity against human SGC7901 cells assessed as reduction in cell viability after 24 hrs by MTT assay; assay type: functional, cell-based; details: SGC-7901, 24 h
# [10] = system: MGC-803; assay: Cytotoxicity against human MGC803 cells assessed as reduction in cell viability after 24 hrs by MTT assay; assay type: functional, cell-based; details: MGC-803, 24 h
# [11] = system: HGC-27; assay: Cytotoxicity against human HGC27 cells assessed as reduction in cell viability after 24 hrs by MTT assay; assay type: functional, cell-based; details: HGC-27, 24 h
# [12] = target: Dual specificity mitogen-activated protein kinase kinase; MEK1/2 (Homo sapiens) (UniProt P36507+Q02750); assay: Inhibition of MEK (unknown origin) phosphorylation relative to control; assay type: protein assay; details: concentration not given here
# Chain of Dual specificity mitogen-activated protein kinase kinase; MEK1/2 (Homo sapiens) (P36507 whole entry, looked up): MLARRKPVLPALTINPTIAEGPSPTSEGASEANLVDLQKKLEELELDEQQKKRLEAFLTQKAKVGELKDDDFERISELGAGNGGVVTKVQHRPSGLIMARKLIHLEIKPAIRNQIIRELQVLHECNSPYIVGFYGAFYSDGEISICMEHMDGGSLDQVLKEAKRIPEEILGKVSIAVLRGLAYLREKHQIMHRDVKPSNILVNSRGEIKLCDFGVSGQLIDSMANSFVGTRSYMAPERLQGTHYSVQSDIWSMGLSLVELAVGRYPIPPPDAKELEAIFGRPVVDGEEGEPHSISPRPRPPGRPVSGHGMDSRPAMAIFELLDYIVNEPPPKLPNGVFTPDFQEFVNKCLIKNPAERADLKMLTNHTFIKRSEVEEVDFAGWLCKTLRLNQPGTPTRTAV
# Chain of Dual specificity mitogen-activated protein kinase kinase; MEK1/2 (Homo sapiens) (Q02750 whole entry, looked up): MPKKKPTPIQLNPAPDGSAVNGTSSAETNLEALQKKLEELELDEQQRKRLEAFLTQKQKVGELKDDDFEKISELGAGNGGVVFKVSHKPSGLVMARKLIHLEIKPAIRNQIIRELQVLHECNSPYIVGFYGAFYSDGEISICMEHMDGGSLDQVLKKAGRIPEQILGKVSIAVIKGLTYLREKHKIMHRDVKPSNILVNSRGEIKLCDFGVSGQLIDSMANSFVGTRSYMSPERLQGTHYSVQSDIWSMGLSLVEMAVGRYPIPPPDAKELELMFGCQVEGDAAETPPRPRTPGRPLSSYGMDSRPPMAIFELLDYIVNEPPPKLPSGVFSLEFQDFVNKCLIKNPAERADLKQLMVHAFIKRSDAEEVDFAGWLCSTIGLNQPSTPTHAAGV
# [13] = target: RAF proto-oncogene serine/threonine-protein kinase (Homo sapiens) (UniProt P04049); assay: Inhibition of c-RAF (unknown origin) phosphorylation relative to control; details: concentration not given here
# Chain of RAF proto-oncogene serine/threonine-protein kinase (Homo sapiens) (P04049 whole entry): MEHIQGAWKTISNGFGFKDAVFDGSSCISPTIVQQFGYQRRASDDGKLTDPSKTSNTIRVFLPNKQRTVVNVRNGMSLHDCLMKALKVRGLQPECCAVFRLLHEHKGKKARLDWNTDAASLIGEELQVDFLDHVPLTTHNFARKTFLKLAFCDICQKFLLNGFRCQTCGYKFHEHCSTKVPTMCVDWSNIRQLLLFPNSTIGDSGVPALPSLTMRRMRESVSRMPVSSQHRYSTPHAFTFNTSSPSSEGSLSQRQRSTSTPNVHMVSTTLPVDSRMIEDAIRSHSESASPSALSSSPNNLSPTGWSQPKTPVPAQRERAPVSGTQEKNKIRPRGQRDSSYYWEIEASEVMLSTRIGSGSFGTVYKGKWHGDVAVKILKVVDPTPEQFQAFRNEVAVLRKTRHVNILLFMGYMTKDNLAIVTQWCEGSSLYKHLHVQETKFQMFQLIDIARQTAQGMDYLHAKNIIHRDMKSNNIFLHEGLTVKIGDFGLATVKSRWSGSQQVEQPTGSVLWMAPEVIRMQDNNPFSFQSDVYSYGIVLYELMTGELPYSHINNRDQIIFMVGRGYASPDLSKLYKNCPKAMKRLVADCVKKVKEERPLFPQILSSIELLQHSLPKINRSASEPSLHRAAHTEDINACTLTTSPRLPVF
# [14] = species on record: Homo sapiens; assay: Inhibition of ERK (unknown origin) phosphorylation relative to control; details: concentration not given here
# [15] = system: MG-63; assay: Cytotoxicity against human MG63 cells assessed as reduction in cell viability after 48 hrs; assay type: functional, cell-based; details: MG-63, 48 h
# [16] = system: U2OS; assay: Cytotoxicity against human U2OS cells assessed as reduction in cell viability after 48 hrs; assay type: functional, cell-based
# [17] = system: HeLa; assay: Cytotoxicity against human HeLa cells assessed as reduction in cell viability; assay type: functional, cell-based
# [18] = system: MCF7; assay: Cytotoxicity against human MCF7 cells assessed as reduction in cell viability; assay type: functional, cell-based
# [19] = system: HeLa; assay: Cytotoxicity against human HeLa cells assessed as reduction in cell viability after 72 hrs; assay type: functional, cell-based
# [20] = system: SiHa; assay: Cytotoxicity against human SiHa cells assessed as reduction in cell viability after 72 hrs; assay type: functional, cell-based
# [21] = system: C-33-A; assay: Cytotoxicity against human C33A cells assessed as reduction in cell viability after 72 hrs; assay type: functional, cell-based
# [22] = system: HeLa; assay: Cytotoxicity against human HeLa cells assessed as reduction in cell viability after 72 hrs by MTT assay; assay type: functional, cell-based
# [23] = system: SiHa; assay: Cytotoxicity against human SiHa cells assessed as reduction in cell viability after 72 hrs by MTT assay; assay type: functional, cell-based
# [24] = system: Ca-Ski; assay: Cytotoxicity against human CaSki cells assessed as reduction in cell viability after 72 hrs; assay type: functional, cell-based
# [25] = system: PC-12; assay: Cytotoxicity against rat PC12 cells assessed as reduction in cell viability after 48 hrs by MTT assay; assay type: functional, cell-based; details: PC-12, 48 h
# [26] = system: L02; assay: Cytotoxicity against human LO2 cells assessed as reduction in cell viability after 48 hrs by MTT assay; assay type: functional, cell-based; details: L02, 48 h
# [27] = system: HK-2; assay: Cytotoxicity against human HK2 cells assessed as reduction in cell viability after 24 to 48 hrs by MTT assay; assay type: cell-based
# [28] = system: SiHa; assay: Cytotoxicity against human SiHa cells assessed as reduction in cell viability after 24 hrs by MTT assay; assay type: functional, cell-based
# [29] = system: MDA-MB-231; assay: Cytotoxicity against human MDA-MB-231 cells assessed as reduction in cell viability after 24 to 48 hrs by MTS assay; assay type: functional, cell-based
# [30] = system: MCF7; assay: Cytotoxicity against human MCF7 cells assessed as reduction in cell viability after 24 to 48 hrs by MTS assay; assay type: functional, cell-based
# [31] = system: HeLa; assay: Cytotoxicity against human HeLa cells assessed as reduction in cell viability after 24 hrs by MTT assay; assay type: functional, cell-based
# [32] = system: WI-38; assay: Cytotoxicity against human WI38 cells assessed as reduction in cell viability after 24 to 48 hrs by MTT assay; assay type: cell-based
# [33] = system: NCI-H28; assay: Cytotoxicity against human NCI-H28 cells assessed as reduction in cell viability after 24 to 48 hrs by MTS assay; assay type: functional, cell-based
# [34] = system: MSTO-211H; assay: Cytotoxicity against human MSTO-211H cells assessed as reduction in cell viability after 24 to 48 hrs by MTS assay; assay type: functional, cell-based
# [35] = system: HepG2; assay: Growth inhibition of human HepG2 cells; assay type: functional, cell-based
# [36] = system: PC-3; assay: Cytotoxicity against human PC3 cells assessed as reduction in cell viability relative to control; assay type: functional
# [37] = system: MCF7; assay: Cytotoxicity against human MCF7 cells assessed as reduction in cell viability at 0.01 uM after 48 hrs by fluorescence assay relative to control; assay type: functional
# [38] = system: LNCaP C4-2; assay: Cytotoxicity against human C4-2 cells assessed as reduction in cell viability relative to control; assay type: functional
# [39] = system: MCF7; assay: Cytotoxicity against human MCF7 cells assessed as reduction in cell viability at 5 uM after 48 hrs by fluorescence assay relative to control; assay type: functional
# [40] = system: DU-145; assay: Cytotoxicity against human DU145 cells assessed as reduction in cell viability relative to control; assay type: functional
# [41] = system: LNCaP; assay: Cytotoxicity against human LNCAP cells assessed as reduction in cell viability relative to control; assay type: functional
compound,measurement,setting,value
COc1ccc(C(=O)/C=C/c2ccccc2)c(O)c1,IC50,[1],8.08 to 13.8 µM
CCn1cc(C(=O)O)c(=O)c2c3c(ccc21)NC(=O)/C3=C1/C(=O)Nc2ccc(Cl)cc21,IC50,[2],4.27 µM
COc1cc(/C=C/C(=O)C(=Cc2ccncc2)C(=O)/C=C/c2ccc(O)c(OC)c2)ccc1O,IC50,[3],0.4 to 3.2 µM
same,IC50,[4],0.6 µM
same,IC50,[5],0.4 to 3.2 µM
CC(=O)Oc1ccc(C(=O)/C=C/c2ccccc2)c(O)c1,IC50,[1],8.08 to 13.8 µM
COc1cccc(OC)c1C(=O)/C=C/c1c2ccccc2nc2ccccc12,IC50,[6],4.2 µM
CCOc1ccc(C(=O)/C=C/c2ccccc2)c(O)c1,IC50,[1],8.08 to 13.8 µM
C=C1C(=O)[C@]23[C@H](O)[C@@H]1CC[C@H]2[C@]12CCCC(C)(C)[C@H]1[C@H](O)[C@@]3(O)OC2,IC50,[7],1.52 µM
same,IC50,[8],1.26 µM
CCCOc1ccc(C(=O)/C=C/c2ccccc2)c(O)c1,IC50,[1],8.08 to 13.8 µM
COc1ccc(Br)cc1C(=O)/C=C/c1ccc(S(C)(=O)=O)cc1,IC50,[9],3.57 to 5.61 µM
same,IC50,[10],3.57 to 5.61 µM
same,IC50,[11],3.57 to 5.61 µM
O=C(/C=C/c1ccc(O)cc1)/C(C(=O)Nc1ccccc1)=C(O)/C=C/c1ccc(O)cc1,inhibition,[12],91%
same,inhibition,[13],93%
same,inhibition,[14],87%
"O=C(/C=C/c1ccccc1)c1ccc(O)cc1O [2',4'-DIHYDROXYCHALCONE]",IC50,[1],8.08 to 13.8 µM
"O=C(/C=C(\O)c1ccccc1)c1ccccc1O [2',beta-DIHYDROXYCHALCONE]",IC50,[15],23.8 µM
same,IC50,[16],19.6 µM
COc1cc(O)c(C(=O)/C=C/c2ccccc2)c2c1C=CC(C)(CCC=C(C)C)O2 (stereo not given) [BOESENBERGIN A],IC50,[17],20 µM
same,IC50,[18],20 µM
O=C(/C=C/c1ccc(O)cc1)c1ccc(O)cc1O [ISOLIQUIRITIGENIN],IC50,[19],58.1 µM
same,IC50,[20],53.8 µM
same,IC50,[21],32.8 µM
same,IC50,[22],58.1 µM
same,IC50,[23],53.8 µM
same,IC50,[24],39.1 µM
same,IC50,[25],17.8 µM
same,IC50,[26],> 1000 µM
C=CC(C)(C)c1cc(/C=C/C(=O)c2ccc(O)cc2)c(OC)cc1O [LICOAGROCHACONE A],IC50,[27],88.7 µM
same,IC50,[28],42.2 µM
same,IC50,[29],22 µM
same,IC50,[30],22 µM
same,IC50,[31],48.5 µM
same,IC50,[32],90.2 µM
same,IC50,[33],30 µM
same,IC50,[34],26 µM
CCCCC/C=C/C(=O)CCc1ccc(O)c(OC)c1 [SHOGAOL],IC50,[35],88 µM
COc1cc(O)c(CC=C(C)C)c(O)c1C(=O)/C=C/c1ccc(O)cc1 [XANTHOHUMOL],Activity,[36],42%
same,Activity,[37],39.6%
same,Activity,[38],30%
same,Activity,[39],-57.3%
same,Activity,[40],38%
same,Activity,[41],41%
